Test system: Cells expressing Notch (ALL-SIL, DND-41, HPB-ALL or TALL-1)
Assay: Assay for Cell Cycle Arrest
Assay type: cell-based
Conditions: concentrations up to 10 μM, incubation typically 4-8 days, in comparison to untreated controls
Protocol: Cells expressing Notch (ALL-SIL, DND-41, HPB-ALL or TALL-1) (Weng et al, Science, 306 (2004), 269-71) were incubated in the presence or absence of a compound of the instant invention (e.g. the compound of Examples 2 and 7 below) at concentrations up to 10 μM. At the end of the incubation (typically 4-8 days), the cells were collected, fixed in 70% ethanol on ice for >2 hours, washed, then labelled for 15 min at 37° C. with propidium iodide (0.2 mg/ml) (PI) in the presence of 0.1% Triton X100 and 0.2 mg/ml RNase and subjected to FACS analysis.

SMILES: CC[C@@H]1C[C@H]2C[C@@](c3cc(F)ccc3F)(S(=O)(=O)c3ccc(C(F)(F)F)cc3)CC[C@H]2NS1(=O)=O [Example 2, (3R,4aS,6S,8aR)-6-(2,5-difluorophenyl)-3-ethyl-6-{[4-(trifluoromethyl)phenyl]sulfonyl}octahydro-1H-2,1-benzothiazine 2,2-dioxide]
- cell cycle populations by FACS (propidium iodide): severe loss of G2- and S-phase populations

Reference: patent US20090306058A1, “Sulphone Derivatives for Treatment of Cancer” (priority 2005, published 2009)
